In paper PMC8386742, “Discovery of N-aryl sulphonamide-quinazoline derivatives as anti-gastric cancer agents in vitro and in vivo via activating the Hippo signalling pathway” (Journal of Enzyme Inhibition and Medicinal Chemistry, 2021) one finds IC50 and melting point data, which are given here for 9 compounds.

Where two headings read alike, the source gives them in different places.

The subject of series [1] is MGC-803 cells. The following applies: 48 h, cited from earlier work.
For a further series, the system named is HCT-116 cells. The series is described as follows: MTT antiproliferative assay, HCT-116 cells. The note with it: exposure for 48 h. Format: cell-based, human. The procedure:
(§1) The in vitro antiproliferative activities of new target compounds 6a–6g, 9a–9i, 10a–10j, 11a–11j, and 14a–14d were evaluated against four human cancer cell lines (MGC-803, PC-3, HCT-116, and MCF-7) using MTT assay and 5-FU as a positive drug. The following Tables 1–[4] depicted the results of in vitro antiproliferative activity.
(§2) Cell lines used were cultured in humidified incubator in a humidified atmosphere of 5% CO2 and 95% air. The RPMI-1640 medium was supplemented with 10% foetal bovine serum, penicillin (100 U/ml) and streptomycin (0.1 mg/ml).
(§3) Cell lines were seeded into 96-well plates and incubated for 24 h. Then cells were treated with different concentrations of compounds. And after another 48 h, MTT reagent (20 μL per well) was added to each well and then incubated at 37 °C for 4 h. After the suspension was discarded, formazan was then dissolved with DMSO. Absorbencies of formazan solution were measured at 490 nm. The IC50 values of tested compounds were calculated by SPSS version 17.0.

In another series the test system is PC-3 cells. The series is described as follows: MTT antiproliferative assay, PC-3 cells. Format: cell-based, human. The procedure: as §1, §2, §3
The subject of a further series is MCF-7 cells. Briefly: MTT antiproliferative assay, MCF-7 cells. Format: cell-based, human. The following applies: exposure for 48 h. As to the method: as §1, §2, §3
Another series deals with SGC-7901 cells. The series is described as follows: MTT antiproliferative assay, SGC-7901 gastric cancer cells. It is filed as cell-based. The following applies: exposure for 48 h. As to the method:
(§4) Furthermore, MGC-803 cells were more sensitive to the compounds than HCT-116, PC-3 cells MCF-7 cells. Moreover, we chose two other common gastric cancer cell lines (HGC-27 and SGC-7901) and another two normal cells GES-1 and HUEVC cells to examine for the inhibitory activity of compound 9i.
as §2, §3

The next series has as its system HGC-27 cells. Briefly: MTT antiproliferative assay, HGC-27 gastric cancer cells. It is filed as cell-based. The note with it: MTT, exposure for 48 h. The procedure:
as §4, §2, §3

The subject of another series is GES-1 cells. The series is described as follows: MTT antiproliferative assay, GES-1 normal gastric epithelial cells. It is filed as cell-based. The note with it: MTT, exposure for 48 h, non-cancer cell line.
Excerpt: as §4
Since compound 9i presented high potency against cancer cells and MGC-803 cells was more sensitive to compound 9i, compound 9i, MGC-803, another two gastric cancer cells SGC-7901, HGC-27, and GES-1(normal gastric epithelial cells) were used for further detection. As shown in Figures 3(A,B), compound 9i inhibited three gastric cancer cell lines in the dose and time-dependent manners. The inhibition ratios of compound 9i against three gastric cancer cells were all above 50% after 48 h in the high dosage group. Moreover, MGC-803 and SGC-7901 cell lines were more sensitive and compound 9i inhibited over 65% cell viability with high dose treatment for 48 h.
as §2, §3

A further series has as its system HUEVC cells. Briefly: MTT antiproliferative assay, HUEVC normal cells. Format: cell-based. The following applies: exposure for 48 h, non-cancer cell line. The procedure: as §4, §2, §3
The subject of series [2] is MGC-803 cells. The series is described as follows: MTT antiproliferative assay, MGC-803 cells. Format: cell-based, human. The note with it: Homo sapiens, MGC-803, 48 h, exposure for 48 h. The procedure:
as §1, §2, §3

[3] abbreviates: Homo sapiens, PC-3, exposure for 48 h.

With `COc1ccc(CN(C(=O)CSc2nc3ccccc3[nH]2)c2cc(OC)c(OC)c(OC)c2)cc1` [Compound 1], the IC50 in the series with MGC-803 cells [1] (previously reported compound 1 ref 31) was 1.23 µM.

Consider `COc1cc(N(Cc2nc3ccccc3[nH]2)S(=O)(=O)c2ccc(C)cc2)cc(OC)c1OC` [Compound 2], for which the IC50 with MGC-803 cells [1] (previously reported compound 2 ref 32) was 1.02 µM.

`O=c1[nH]cc(F)c(=O)[nH]1` [Compound 5-Fu, reference compound]: the IC50 in the series with HCT-116 cells was 14.4 ± 1.73 µM; in the series with PC-3 cells (exposure for 48 h), 17.1 ± 1.42 µM; with MCF-7 cells, 12.1 ± 1.28 µM; with SGC-7901 cells, 3.88 µM; in the series on HGC-27 cells, 4.94 µM; in the series with GES-1 cells, 10.2 µM. In addition, half-maximal inhibition with HUEVC cells (IC50) was put at 18.5 µM.

In the case of `COc1cc(N(Cc2nc(C)c3ccccc3n2)C(=O)c2c(C)cc(C)cc2C)cc(OC)c1OC` [Compound 11f, 2,4,6-Trimethyl-N-((4-methylquinazolin-2-yl)methyl)-N-(3,4,5-trimethoxyphenyl) benzamide], the melting point fell in the range of 209 to 210 °C. Half-maximal inhibition with MGC-803 cells [2] (IC50) required 32.8 ± 2.12 µM. In the series on HCT-116 cells (Homo sapiens, HCT-116, 48 h), inhibition was half-maximal at 28.5 ± 2.64 µM (IC50). The compound also showed an IC50 in the series with PC-3 cells (setting [3]) of over 40 µM. In the series on MCF-7 cells (Homo sapiens, MCF7, 48 h), this compound showed an IC50 of over 40 µM.

For `COc1cc(N(Cc2nc(C)c3ccccc3n2)C(=O)c2ccc(C(C)(C)C)cc2)cc(OC)c1OC` [Compound 11g, 4-(Tert-butyl)-N-((4-methylquinazolin-2-yl)methyl)-N-(3,4,5-trimethoxyphenyl) benzamide], the melting point was 117 to 118 °C. In the series with MGC-803 cells [2], this compound registered a half-inhibitory concentration (IC50) of over 40 µM. Also, the IC50 in the series with HCT-116 cells (Homo sapiens, HCT-116, 48 h) is over 40 µM. The compound also showed an IC50 in the series with PC-3 cells (setting [3]) of over 40 µM. Besides, the IC50 with MCF-7 cells (Homo sapiens, MCF7, 48 h) was over 40 µM.

Compound `COc1cc(C(=O)N(Cc2nc(C)c3ccccc3n2)c2cc(OC)c(OC)c(OC)c2)cc(OC)c1OC` [Compound 11i, 3,4,5-Trimethoxy-N-((4-methylquinazolin-2-yl)methyl)-N-(3,4,5-trimethoxyphenyl) benzamide] gave a melting point of 129 to 130 °C. The concentration for half-maximal inhibition (IC50) in the series with MGC-803 cells [2] was determined as 16.8 ± 2.02 µM. The IC50 with HCT-116 cells (Homo sapiens, HCT-116, 48 h) amounted to 20.4 ± 1.92 µM. For the same compound, the half-maximal inhibitory concentration (IC50) with PC-3 cells (setting [3]) is over 40 µM. This compound had an IC50 in the series with MCF-7 cells (Homo sapiens, MCF7, 48 h) of over 40 µM.

Regarding `COc1cc(N(Cc2nc(C)c3ccccc3n2)C(=O)c2cccs2)cc(OC)c1OC` [Compound 11j, N-((4-methylquinazolin-2-yl)methyl)-N-(3,4,5-trimethoxyphenyl)thiophene-2-carboxamide], the melting point was in the range of 136 to 137 °C. Moreover, the half-maximal inhibitory concentration (IC50) with MGC-803 cells [2] was 14.7 ± 1.88 µM. The same compound yielded a half-inhibitory concentration (IC50) with HCT-116 cells (Homo sapiens, HCT-116, 48 h) of 24.8 ± 2.13 µM. The half-maximal inhibitory concentration (IC50) in the series on PC-3 cells (setting [3]) is over 40 µM. In the series with MCF-7 cells (Homo sapiens, MCF7, 48 h), this compound displayed an IC50 of over 40 µM.

With `COc1ccc(S(=O)(=O)N(Cc2nc(C)c3ccccc3n2)c2ccccc2)cc1` [Compound 14a, 4-Methoxy-N-((4-methylquinazolin-2-yl)methyl)-N-phenylbenzene-sulphonamide], the melting point lay within 85 to 86 °C. In the series on MGC-803 cells [2], the 50% inhibitory concentration (IC50) was 44.6 ± 1.41 µM. Besides, the IC50 in the series with HCT-116 cells (Homo sapiens, HCT-116, 48 h) came out at 46.9 ± 1.84 µM. Further, in the series on PC-3 cells (setting [3]), the IC50 is over 50 µM. Besides, the half-maximal inhibitory concentration (IC50) in the series on MCF-7 cells (Homo sapiens, MCF7, 48 h) was over 50 µM.

Turning to `COc1ccc(S(=O)(=O)N(Cc2nc(C)c3ccccc3n2)c2ccc(C)cc2)cc1` [Compound 14d, 4-Methoxy-N-((4-methylquinazolin-2-yl)methyl)-N-(p-tolyl)benzene-sulphonamide], the melting point lay within 129 to 130 °C. For the same compound, half-maximal inhibition with MGC-803 cells [2] (IC50) required 42.2 ± 2.44 µM. In the series on HCT-116 cells (Homo sapiens, HCT-116, 48 h), this compound displayed an IC50 of over 50 µM. Besides, the IC50 in the series on PC-3 cells (setting [3]) worked out at 45.7 ± 2.88 µM. In the series with MCF-7 cells (Homo sapiens, MCF7, 48 h), this compound gave an IC50 of over 50 µM.
